pIC50: −log10 of the molar value.
What was measured:
[1] = target: T1, hERG potassium ion channel (Homo sapiens, UniProt Q12809); experiment: Effect on hERG potassium ion channel (CHO hERG cells, manual patch clamp); assay type: cell-based; conditions: final 10 μM test concentration, read-out: hERG inhibitory concentration IC50
T1 construct: host or cells: CHO
Procedure: Assay 2: Effect on hERG Potassium Ion Channel 2.1 Cell Culture 2.1.1 Cells used in this experiment were CHO cell lines (supplied by Sophion Bioscience, Denmark) which were hERG cDNA transfectant and stably express hERG channels, and cell progeny was P15. Cells were cultured in medium containing the following ingredients Invitrogen): Ham's F12 medium, 10% (v/v) inactivated fetal bovine serum, […] Geneticin. 2.1.2 CHO hERG cells were grown in Petri dishes containing the above medium and cultured in an incubator containing 5% CO2 at 37° C. CHO hERG cells were transferred onto round glass plates in Petri dishes, and grown on the same culture medium under culture conditions as above for 24 h to 48 h prior to the electrophysiological experiments, and the density of CHO hERG cells on each round glass plate needs to meet the requirements that the vast majority of cells are independent and individual. 2.2 Experimental Solution The following solutions (supplied by Sophion) were used for electrophysiological recording as shown in Table 3. The reagents used in this test were provided by Sigma. [table] 2.3 Electrophysiological Recording System In this experiment, whole-cell current recording was performed using a manual patch clamp system (HEKA EPC-10 signal amplification and digital conversion system, purchased from HEKA Electronic, Germany). The round glass slide, surface of which CHO hERG cells were grown on was placed in an electrophysiological recording slot under an inverted microscope. Extracellular fluid was used for steady perfision in recording slot (approximately 1 ml per minute). A conventional whole-cell patch clamp current recording technique was used in the experiment. Unless otherwise specified, experiments were performed at normal room temperature (25° C.). Cell clamping was at −80 mV. Cell clamping voltage depolarized to +20 mV to activate hERG potassium channel, clamping to −50 mV after 5 sec to eliminate inactivation and generate tail currents. The tail current peak was used as a value for hERG current. The hERG potassium current recorded in the above steps could be superfused for test drug after the steady perfusion state of the extracellular fluid in the recording slot is stabilized until the inhibition of the hERG current by the drug reached a steady state. The coincidence of the last three consecutive current recording lines was generally used as a criterion to determine whether the state is stable. After reaching a steady state, perfused with extracellular fluid until hERG current returned to the value before the drug adding. One or more drugs could be tested on a single cell, or multiple concentrations of the same drug, but needed to be rinsed with extracellular fluid between different drugs. […] 2.4 Compound Treatment and Dilution The compound was firstly dissolved in DMSO to a concentration of 10 mM and then the compound was diluted 1000-fold to the final […] test concentration using an extracellular solution. The final concentration of DMSO in the compound test solution was equal to 0.1%. […] All stock solutions and test solutions were subjected to regular 5-10 minute sonication and shaken to ensure complete dissolution of the compound. 2.5 Data Analysis The test data were analyzed by the data analysis software provided by HEKA Patchmaster (V2x73.2), Microsoft Excel and Graphpad Prism 5.0.

hNav1.7 = target: T2, hNav1.7 (Homo sapiens, UniProt Q15858); experiment: Manual patch clamp experiment hNav1.7 (CHO-hNav1.7 stable cell line); assay type: cell-based; conditions: for inhibition at 0.1 µM: compound at 100 nM, read-out: Inhibition of Nav1.7 100 nM(%); for inhibition at 1 µM: compound at 1000 nM, read-out: Inhibition of Nav1.7 1000 nM(%)
T2 construct: host or cells: CHO
T2 sequence (Q15858 whole entry): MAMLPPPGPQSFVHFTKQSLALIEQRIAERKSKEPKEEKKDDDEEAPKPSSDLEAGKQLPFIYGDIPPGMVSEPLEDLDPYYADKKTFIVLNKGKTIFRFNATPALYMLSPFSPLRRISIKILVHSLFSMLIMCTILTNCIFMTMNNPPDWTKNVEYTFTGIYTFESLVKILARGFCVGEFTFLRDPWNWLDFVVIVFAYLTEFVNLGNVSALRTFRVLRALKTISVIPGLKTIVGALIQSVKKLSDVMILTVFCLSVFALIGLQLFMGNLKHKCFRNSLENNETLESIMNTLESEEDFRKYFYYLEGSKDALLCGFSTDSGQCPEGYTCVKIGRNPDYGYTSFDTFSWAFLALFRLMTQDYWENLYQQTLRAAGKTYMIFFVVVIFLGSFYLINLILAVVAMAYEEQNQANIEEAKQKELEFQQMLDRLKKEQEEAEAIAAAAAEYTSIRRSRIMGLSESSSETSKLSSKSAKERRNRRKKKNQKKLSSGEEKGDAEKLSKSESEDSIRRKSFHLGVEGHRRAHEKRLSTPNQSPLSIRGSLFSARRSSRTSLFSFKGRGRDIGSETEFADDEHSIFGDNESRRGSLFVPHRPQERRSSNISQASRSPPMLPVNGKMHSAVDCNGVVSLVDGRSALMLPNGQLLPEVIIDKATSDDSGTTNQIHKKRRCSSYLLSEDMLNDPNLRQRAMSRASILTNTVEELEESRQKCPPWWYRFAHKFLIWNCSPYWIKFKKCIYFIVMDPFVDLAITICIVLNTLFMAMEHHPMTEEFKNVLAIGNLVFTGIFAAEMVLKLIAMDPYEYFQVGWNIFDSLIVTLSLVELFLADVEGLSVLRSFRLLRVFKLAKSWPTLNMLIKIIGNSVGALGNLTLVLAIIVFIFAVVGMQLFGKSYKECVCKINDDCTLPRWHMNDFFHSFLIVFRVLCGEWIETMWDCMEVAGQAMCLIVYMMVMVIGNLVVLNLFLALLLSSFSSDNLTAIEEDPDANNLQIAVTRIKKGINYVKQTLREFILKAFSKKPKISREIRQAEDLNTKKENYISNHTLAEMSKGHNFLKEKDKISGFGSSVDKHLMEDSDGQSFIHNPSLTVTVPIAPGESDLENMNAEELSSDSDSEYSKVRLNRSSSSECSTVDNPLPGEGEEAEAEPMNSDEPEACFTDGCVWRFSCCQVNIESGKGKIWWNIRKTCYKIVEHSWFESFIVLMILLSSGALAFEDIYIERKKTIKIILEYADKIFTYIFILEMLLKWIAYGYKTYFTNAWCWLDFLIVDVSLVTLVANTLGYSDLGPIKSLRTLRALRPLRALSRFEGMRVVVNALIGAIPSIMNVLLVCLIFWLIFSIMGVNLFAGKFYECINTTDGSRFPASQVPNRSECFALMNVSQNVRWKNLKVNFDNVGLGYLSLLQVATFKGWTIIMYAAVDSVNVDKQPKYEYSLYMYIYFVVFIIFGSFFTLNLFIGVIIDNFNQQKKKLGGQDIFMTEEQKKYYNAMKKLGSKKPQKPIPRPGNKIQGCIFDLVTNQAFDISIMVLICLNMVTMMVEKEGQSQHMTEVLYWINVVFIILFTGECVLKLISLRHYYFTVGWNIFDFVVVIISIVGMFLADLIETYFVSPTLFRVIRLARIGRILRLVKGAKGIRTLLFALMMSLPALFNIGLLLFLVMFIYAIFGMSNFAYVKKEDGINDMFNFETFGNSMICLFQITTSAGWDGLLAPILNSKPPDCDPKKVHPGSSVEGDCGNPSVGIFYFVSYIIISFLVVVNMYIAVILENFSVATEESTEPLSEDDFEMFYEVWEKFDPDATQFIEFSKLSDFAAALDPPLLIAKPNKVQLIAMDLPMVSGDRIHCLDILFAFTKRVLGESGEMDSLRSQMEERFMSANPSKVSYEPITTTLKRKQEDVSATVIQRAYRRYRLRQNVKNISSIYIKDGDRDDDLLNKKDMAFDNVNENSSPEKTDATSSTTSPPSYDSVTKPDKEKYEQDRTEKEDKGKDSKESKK
Source text: Assay 1: Manual Patch Clamp Experiment of Sodium Ion (hNav1.7, hNav1.5 and hNaV1.8) and Calcium Ion (hCav3.2) Channels
hNav1.7, hNav1.5 Manual Patch Clamp Experiment:
Patch voltage clamp electrophysiology allows for the direct measurement and quantification of current block of voltage-gated sodium channels (NaV's), and allows the determination of the time and voltage-dependence of block which has been interpreted as differential binding to the resting, open and inactivated states of the sodium channel to reflect the compound's inhibitory or activating effects (Hille, B., Journal of General Physiology (1977), 69: 497-515).
Representative compounds of the present invention were subject to a manual patch clamp experiment and the purpose of this study was to test the effect of compounds on this ion channel current on a stable cell line transfected with a specific ion channel using a manual patch clamp method. The used stable cell lines CHO-hNav1.7 and HEK-hNav1.5 were from Genionics and WuXi Apptec (Shanghai) respectively.
Manual patch clamp experimental program is as follows:
(1) Preparation of solutions and compounds: The whole cell patch clamp technique was used to record hNav1.7 and hNav1.5 currents. In the experiment, the composition of extracellular fluid (mM): HEPES: 5, NaCl: 40, KCl: CaCl2: 1, MgCl2: 1, CdCl2: 0.1, TEA-Cl: 20. The pH was adjusted to 7.3 with NaOH and the osmotic pressure was adjusted to 310-320 mOsm with sucrose, filtered and stored at 4° C. The composition of the intracellular fluid (mM): HEPES: 10, NaCl: 10, CsOH: 5, CsF: 140, EGTA: 1. The pH was adjusted to 7.3 with CsOH and the osmotic pressure was adjusted to 280-290 mOsm with sucrose, filtered and stored at −20° C.
The positive control and the test compound were firstly dissolved in 100% DMSO (Sigma-Aldrich, D2650), configured as stock solution at a concentration (100 nM, 1000 nM).) The above stock solution was serially diluted with DMSO prior to the experiment, the solution was further diluted with extracellular solution to obtain the test solution of the desired concentration.
(2) Manual Patch Clamp Experiment: The cell suspension was added to a 35 mm petri dish and placed on an inverted microscope stage. The cells were perfused with an extracellular fluid and the flow rate was 1-2 mL/min after cell adherence. The glass microelectrode was prepared in two steps by a microelectrode puller with an inlet water resistance of 2-5 MΩ. A/D-D/A digital-analog conversion was performed by Digidata 1440 (Molecular Devices) and pCLAMP software (version 10.2, Molecular Devices) for stimulation and signal acquisition; the signal was amplified by patch clamp amplifier (Multiclamp 700B, Molecular Devices), and filtering is 4 KHz.
Two different voltage stimulation procedures were used in the hNav1.7 and hNav1.5 manual patch clamp experiments.
One is the inactivation stimulation program, the clamp potential is set at V1/2 of the corresponding channel, i.e., about 50% of the channels are inactivated, then the voltage is applied to −120 mV for 50 ms, then depolarized to −10 mV for 20 ms leading to sodium current, and finally returned to the clamp potential. This stimulation program can also be called channel state-dependent voltage stimulation program.
The other is the non-inactivation stimulation program, the clamp potential is maintained at −120 mV, voltage stimulation is given to −10 mV for 20 ms leading to sodium current, and finally returned to the clamp potential. That is, all channels have not experienced inactivation status, but activate directly from the resting state under the conditions of the stimulation program.
The time intervals of these two voltage stimulation programs were 10 s. The inhibitory effect of the compound was calculated by the change of the current before and after dosing, the IC50 value was fitted by the Hill equation.

T1 sequence (Q12809 whole entry): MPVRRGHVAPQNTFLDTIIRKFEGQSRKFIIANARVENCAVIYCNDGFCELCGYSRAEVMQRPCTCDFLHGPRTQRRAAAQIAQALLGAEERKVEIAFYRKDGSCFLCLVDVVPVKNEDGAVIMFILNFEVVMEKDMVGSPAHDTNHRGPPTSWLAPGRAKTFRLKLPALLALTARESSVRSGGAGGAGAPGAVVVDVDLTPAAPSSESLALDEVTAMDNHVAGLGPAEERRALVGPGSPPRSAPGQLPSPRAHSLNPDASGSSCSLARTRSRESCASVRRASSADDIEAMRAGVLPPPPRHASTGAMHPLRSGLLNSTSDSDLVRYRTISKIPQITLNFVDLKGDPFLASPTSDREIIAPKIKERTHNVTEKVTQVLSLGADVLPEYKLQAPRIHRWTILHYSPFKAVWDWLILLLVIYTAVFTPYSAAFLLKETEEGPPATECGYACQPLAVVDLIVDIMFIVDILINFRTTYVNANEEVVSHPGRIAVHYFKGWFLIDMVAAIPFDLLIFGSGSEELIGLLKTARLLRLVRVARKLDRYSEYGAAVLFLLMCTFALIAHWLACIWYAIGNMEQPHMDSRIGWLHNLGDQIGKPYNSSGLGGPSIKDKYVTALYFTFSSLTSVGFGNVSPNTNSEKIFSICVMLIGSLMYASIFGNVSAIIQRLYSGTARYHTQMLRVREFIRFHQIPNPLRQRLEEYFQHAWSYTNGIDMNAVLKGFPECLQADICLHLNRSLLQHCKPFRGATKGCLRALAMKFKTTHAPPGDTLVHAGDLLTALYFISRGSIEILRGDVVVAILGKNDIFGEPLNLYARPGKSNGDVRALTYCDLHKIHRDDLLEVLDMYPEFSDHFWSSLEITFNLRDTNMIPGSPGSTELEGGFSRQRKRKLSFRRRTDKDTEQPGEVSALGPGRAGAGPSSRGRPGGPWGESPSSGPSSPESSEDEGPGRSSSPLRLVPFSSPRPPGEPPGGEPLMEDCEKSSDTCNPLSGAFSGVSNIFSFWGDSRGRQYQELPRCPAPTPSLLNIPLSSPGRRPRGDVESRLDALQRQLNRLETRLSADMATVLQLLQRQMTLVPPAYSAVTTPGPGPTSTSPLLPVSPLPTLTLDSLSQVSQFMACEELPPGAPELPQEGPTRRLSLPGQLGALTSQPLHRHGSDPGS

| Structure (SMILES) | pIC50 [1] | inhibition at 0.1 µM (hNav1.7) | inhibition at 1 µM (hNav1.7) |
| --- | --- | --- | --- |
| Cc1cc(N2CCN(Cc3cc(F)c(C(=O)NS(=O)(=O)C4CC4)cc3Cl)CC2)c(C)cc1Cl [Compound Z-183] | < 5.00 | 90.8% | 99.5% |
| Cc1cc(N2CCN(Cc3cc(F)c(C(=O)NS(=O)(=O)C4CC4)cc3Cl)CC2)c(F)cc1Cl [Compound Z-186] | < 5.00 | 83.3% | 100% |
| Cc1c(Cl)ccc(N2CCN(Cc3cc(F)c(C(=O)NS(=O)(=O)C4CC4)cc3Cl)CC2)c1Cl [Compound Z-187] | < 5.00 | 89.7% | 100% |

From patent US10815197B2, “N-sulfonyl benzamides as voltage-gated sodium channel inhibitors” (SHANGHAI HAIYAN PHARMACEUTICAL TECHNOLOGY CO., LTD., priority 2016, dated 2020)
